From the NIST ThermoML archive (doi:10.1016/j.jct.2018.07.006)
“And” between values parts separate entries of the source, which are not always exact repeats. Identical values can stand only once. ± gives the expanded uncertainty stated by the source.

Experiment: mn = molality of the nth substance listed, in mol/kg
Settings: 100 kPa, Liquid; for speed of sound: Frequency=3 MHz, Single path-length method; for mass density: Vibrating tube method

Compound `CC(C)(CO)[C@@H](O)C(=O)NCCCO` [d-Panthenol] + O has a speed of sound (293.15 K, m1 = 0.05) of 1489.4 ± 2 m/s, a speed of sound (293.15 K, m1 = 0.1) of 1494.1 ± 2 m/s and a speed of sound (293.15 K, m1 = 0.15) of 1498.5 ± 2 m/s. It also gave a mass density (293.15 K, m1 = 0.05) of 999.509 ± 0.3 kg/m3, a mass density (293.15 K, m1 = 0.1) of 1001.62 ± 0.32 kg/m3 and a mass density (293.15 K, m1 = 0.15) of 1003.34 ± 0.32 kg/m3. It also gave a speed of sound (298.15 K, m1 = 0.05) of 1503 ± 2 m/s, a speed of sound (298.15 K, m1 = 0.1) of 1507.6 ± 2 m/s and a speed of sound (298.15 K, m1 = 0.15) of 1511.6 ± 2 m/s. For the same compound, the mass density (298.15 K, m1 = 0.05) was 998.191 ± 0.3 kg/m3, the mass density (298.15 K, m1 = 0.1) was 1000.22 ± 0.31 kg/m3 and the mass density (298.15 K, m1 = 0.15) was 1002.12 ± 0.32 kg/m3 and 1002.09 ± 0.32 kg/m3. The speed of sound (303.15 K, m1 = 0.05) was 1515.5 ± 2 m/s and 1516 ± 2 m/s, the speed of sound (303.15 K, m1 = 0.1) was 1519.5 ± 2 m/s and 1517.9 ± 2 m/s and the speed of sound (303.15 K, m1 = 0.15) was 1522.9 ± 2 m/s. It also gave a mass density (303.15 K, m1 = 0.05) of 996.926 ± 0.3 kg/m3, a mass density (303.15 K, m1 = 0.1) of 998.987 ± 0.31 kg/m3 and a mass density (303.15 K, m1 = 0.15) of 1000.58 ± 0.32 kg/m3. It also gave a speed of sound (308.15 K, m1 = 0.05) of 1525.2 ± 2 m/s, a speed of sound (308.15 K, m1 = 0.1) of 1529.1 ± 2.2 m/s and a speed of sound (308.15 K, m1 = 0.15) of 1532.5 ± 2 m/s. The mass density (308.15 K, m1 = 0.05) was 995.295 ± 0.3 kg/m3, the mass density (308.15 K, m1 = 0.1) was 997.338 ± 0.31 kg/m3 and the mass density (308.15 K, m1 = 0.15) was 998.985 ± 0.32 kg/m3.
